# Earlier results, collected in patent US20090022826A1, “Multi-step method of pain and/or inflammation treatment” (priority 2007, published 2009).
smiles,measurement,setting,value
"CCOCCOCCO [Ethoxydiglycol, diethylene glycol monoethyl ether]",solubility in alcohol,alcohol,soluble
same,solubility in mineral oil,mineral oil,insoluble
same,solubility in vegetable oil,vegetable oil,partially soluble
same,solubility in water,water,soluble
